Columns and labels:
Assay in all cases: relative viability (nuclei count vs DMSO), 5 days (fraction); higher = more cells survive
FH535 + Bortezomib = compound: CC1=C(C=CC(=C1)[N+](=O)[O-])NS(=O)(=O)C2=C(C=CC(=C2)Cl)Cl [FH535] + CC(C)C[C@H](NC(=O)[C@H](Cc1ccccc1)NC(=O)c1cnccn1)B(O)O [Bortezomib] (partner 0.002 µM)
Method in brief: (§1)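 Dosing by pin tool came one day after lung cancer cell lines were seeded in 1536-well plates, using either one drug or a fixed anchor-drug dose plus five library-drug doses (not always all listed) in √10 steps. After 5 days, nuclei were counted on 4× images. Relative viability is treated-well nuclei count divided by vehicle-well nuclei count, and values are medians of duplicate plates.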

FH535 + Foretinib = compound: CC1=C(C=CC(=C1)[N+](=O)[O-])NS(=O)(=O)C2=C(C=CC(=C2)Cl)Cl [FH535] + COc1cc2c(Oc3ccc(NC(=O)C4(C(=O)Nc5ccc(F)cc5)CC4)cc3F)ccnc2cc1OCCCN1CCOCC1 [Foretinib] (partner 0.25 µM)
Method in brief: as §1

FH535 + Tozasertib = compound: CC1=C(C=CC(=C1)[N+](=O)[O-])NS(=O)(=O)C2=C(C=CC(=C2)Cl)Cl [FH535] + Cc1cc(Nc2cc(N3CCN(C)CC3)nc(Sc3ccc(NC(=O)C4CC4)cc3)n2)n[nH]1 [Tozasertib] (partner 0.1 µM)
Method in brief: as §1

FH535 + Vorinostat = compound: CC1=C(C=CC(=C1)[N+](=O)[O-])NS(=O)(=O)C2=C(C=CC(=C2)Cl)Cl [FH535] + O=C(CCCCCCC(=O)Nc1ccccc1)NO [Vorinostat] (partner 1 µM)
Method in brief: as §1

FH535 + Luminespib = compound: CC1=C(C=CC(=C1)[N+](=O)[O-])NS(=O)(=O)C2=C(C=CC(=C2)Cl)Cl [FH535] + CCNC(=O)c1noc(-c2cc(C(C)C)c(O)cc2O)c1-c1ccc(CN2CCOCC2)cc1 [Luminespib] (partner 0.01 µM)
Method in brief: as §1

Cell Line	relative viability (FH535 + Bortezomib; first compound 0.04 µM)	relative viability (FH535 + Bortezomib; first compound 0.1265 µM)	relative viability (FH535 + Bortezomib; first compound 0.4 µM)	relative viability (FH535 + Bortezomib; first compound 1.265 µM)	relative viability (FH535 + Foretinib; first compound 0.04 µM)	relative viability (FH535 + Foretinib; first compound 0.1265 µM)	relative viability (FH535 + Foretinib; first compound 0.4 µM)	relative viability (FH535 + Foretinib; first compound 1.265 µM)	relative viability (FH535 + Tozasertib; first compound 0.04 µM)	relative viability (FH535 + Tozasertib; first compound 0.1265 µM)	relative viability (FH535 + Tozasertib; first compound 0.4 µM)	relative viability (FH535 + Tozasertib; first compound 1.265 µM)	relative viability (FH535 + Vorinostat; first compound 0.04 µM)	relative viability (FH535 + Vorinostat; first compound 0.1265 µM)	relative viability (FH535 + Vorinostat; first compound 0.4 µM)	relative viability (FH535 + Vorinostat; first compound 1.265 µM)	relative viability (FH535 + Luminespib; first compound 0.04 µM)	relative viability (FH535 + Luminespib; first compound 0.1265 µM)	relative viability (FH535 + Luminespib; first compound 0.4 µM)	relative viability (FH535 + Luminespib; first compound 1.265 µM)
HCC-366	1.1	1.12	0.987	0.925	0.648	1.06	0.958	0.516	0.0788	0.106	0.123	0.0854	0.131	0.416	0.34	0.261				
HCC-827	1.01	0.953	1.04	0.849	1.03	1.07	0.975	0.587	0.425	0.452	0.433	0.347	0.701	0.846	0.869	0.664	0.676	0.794	0.682	0.336
HOP-62	0.579	0.949	0.768	0.682	1.06	1.04	1.03	0.933	0.407	0.362	0.348	0.412	0.5	0.681	0.557	0.563	0.695	0.98	0.831	0.707
IA-LM	0.89	0.799	0.747	0.47	1.21	1.21	1.08	0.701					0.999	1.14	0.954	0.914				
LC-2-ad	0.802	0.987	0.892	0.722	0.807	0.981	0.872	0.853	0.437	0.439	0.578	0.457	0.603	0.714	0.677	0.521	0.967	1.16	1.03	0.755
LCLC-97TM1	0.705	0.545	0.561	0.273	0.854	0.949	1.03	0.679	0.229	0.284	0.282	0.161	0.203	0.568	0.706	0.745	0.736	0.763	0.742	0.436
LCLC-103H	0.948	1.01	0.939	1.01	0.789	0.755	0.776	0.551	0.417	0.521	0.516	0.453	0.569	0.781	0.694	0.666	0.936	1.02	0.862	0.616
LK-2					1.23	1.33	1.39	1.11	0.166	0.172	0.169	0.201	0.166	0.301	0.29	0.485	0.201	0.165	0.168	0.173
